Laboratory results: US11028084B2, “Selective inhibitors of gentotoxic steress-induced IKK/NF-κB pathways” (Max-Delbrück-Centrum für Molekulare Medizin in der …, priority 2016, dated 2021)

Tests used:
[1] = system: TNFα-induced canonical NF-κB activation; assay: TNFα-induced p65 nuclear translocation (counter screening), U2OS cells; type: cell-based, human; conditions: different concentrations
Method: (§1) FIG. 4: (A) U2OS cells were pre-treated with increasing concentrations of MW01 in triplicates in a 384 well plate. Then, cells were treated with TNFα, fixed and subjected to IF staining of p65. Spatial measurement of p65 cytosolic and nuclear signals was used for the calculation of p65 translocation rates. (B) U2OS cells were pre-treated with MW01 at concentrations of 10 or 20 μM and stimulated with TNFα. Cell lysates were subjected to SDS-PAGE/WB. (C) HEK293 cells were pre-treated with DMSO or MW01 followed by administration of etoposide or TNFα. Cell lysates were used for EMSA.
(§2) For the activation of the canonical NF-κB pathway cells were treated with recombinant human TNFα (10 ng/ml) or IL-1β (10 ng/ml) for 20-30 min at 37° C.
For immunofluorescence staining 0.95×10^5 cells were seeded in 6 well plates onto autoclaved cover slips. Cellular confluency dictated to beginning of the experiment (2-3 days from seeding). After conduction of experiments cells were washed with PBS and fixed with 4% PFA/double-distilled H2O (ddH2O) for 10 min at RT. Following two additional washing steps cells were incubated with a solution containing 0.12% glycine/0.2% saponin in PBS for 10 min and then blocked with a solution containing 10% FCS/0.2% saponin in PBS for 1 h. Primary antibody incubation was performed overnight at 4° C. (1:500 diluted in 0.2% saponin in PBS). […]

[2] = target: T1, nuclear IKKγ-PIASy-PARP1-ATM signalosome (Homo sapiens, UniProt P09874+Q13315+Q8N2W9+Q9Y6K9); assay: Nuclear PARP1-signalosome formation, IKKγ co-immunoprecipitation, HEK293 cells; type: cell-based; set-up: endogenous in cells; host or cells: HEK293
Method: (§3) FIG. 8: (A) HepG2 cells were pre-treated with DMSO or MW01 and irradiated. Nuclear cell extracts (NE) were used for PIASy immunoprecipitation (IP). Western blot membranes were incubated with indicated antibodies. (B) Experiment as shown in (A), but with IKKγ IP. (C) Experiment as shown in (B), but done in HEK293 cells. (D) Experiment done as shown in […], but repeated in MEF cells.
(§4) Following cell lysis the protein concentration of samples was determined. For input controls, 40 μg lysate were mixed with 6×SDS-buffer and denatured by heating to 95° C. for 4 min. Approximately 1500 μg protein lysate was used for pulldown and samples volumes were equalled with lysis buffer. Lysates were precleared with 30 μl sepharose A or sepharose G beads (depending on the antibody type used for pulldown) for 30 min, and centrifuged for 5 min at 1,500×g. The supernatant was transferred to a new reaction tube. Primary antibody (2-2.5 μg) was added to the cleared lysate for immunoprecipitation overnight while rotating at 4° C. The next day 30 μl sepharose beads per sample were used for immobilisation of antibodies. Following 4 washes with IP wash buffer precipitated proteins were eluted by mixing with 3×SDS-buffer and heating to 95° C. for 4 min.

[3] = system: genotoxic stress-activated NF-κB signaling; assay: TAK1 and p65 S536 phosphorylation after γ-irradiation, WB, HepG2 cells; type: cell-based, human
Method: FIG. 6: (A) U2OS cells were pre-treated with DMSO or MW01 and irradiated. Stimulation of cell with IL-1β served as a positive control for IκBα and p65 phosphorylation. Cells were lysed at indicated time points and used for WB analyses. (B,C) Similar experimental setup as in (A). (D) Experiment as in (A-C), but with other time points analysed and performed with HepG2 cells. PARP1 and LDH serve as loading controls.
FIG. 9: HepG2 cells were pre-incubated with DMSO, MW01 (5 μM) or the ATM inhibitor Ku55933 (10 μM) and irradiated. After 60 min cells were harvested and processed. Immunochemical staining of Western blotting membranes was done using indicated antibodies.
FIG. 14: (A) U2OS cells were pre-treated with different concentrations of olaparib prior to co-treatment with etoposide. Whole cell lysis was performed after 90 min and cleared lysates were used for WB with indicated antibodies. (B) U2OS cells were pre-treated with DMSO, olaparib or the ATM inhibitor Ku55933 and co-treated with etoposide. Cells were harvested after 45 min and subjected to SDS-PAGE/WB. Membranes were stained with the indicated antibodies. The experiment of (B) was performed simultaneously to the experiments of (A) and (E) to control functionality of olaparib in inhibiting PAR chain formation. (C) Densitometrical analyses of (A) and two further independent experiments done as shown in (A). (D) U2OS cells were pre-treated with the substances as indicated prior to irradiation. After 90 min mRNA was isolated, transcribed into cDNA and was used for expression analyses of the indicated genes using quantitative real-time PCR (qRT-PCR). (E) HepG2 cells were pre-treated with the PARP inhibitors olaparib, 3-AB and EB-47 prior to γ-irradiation. Cells were harvested after 15 and 90 min and subjected to SDS-PAGE/WB. Membranes were stained with the indicated antibodies. Error bars equal SEM.

[4] = system: TNFα-induced NF-κB activation; assay: NF-κB DNA binding activity (EMSA) after TNFα stimulation, HEK293 cells; type: cell-based, human
Method: as §1, §2
Nuclear or whole cell lysates were incubated with a ^32P-labeled NF-κB DNA-[…]

[5] = target: T1, nuclear IKKγ-PIASy-PARP1-ATM signalosome; assay: Nuclear PARP1-signalosome formation, co-immunoprecipitation, HepG2 cells; type: cell-based; set-up: endogenous in cells
Method: as §3, §4

T1 sequence (Q9Y6K9 whole entry): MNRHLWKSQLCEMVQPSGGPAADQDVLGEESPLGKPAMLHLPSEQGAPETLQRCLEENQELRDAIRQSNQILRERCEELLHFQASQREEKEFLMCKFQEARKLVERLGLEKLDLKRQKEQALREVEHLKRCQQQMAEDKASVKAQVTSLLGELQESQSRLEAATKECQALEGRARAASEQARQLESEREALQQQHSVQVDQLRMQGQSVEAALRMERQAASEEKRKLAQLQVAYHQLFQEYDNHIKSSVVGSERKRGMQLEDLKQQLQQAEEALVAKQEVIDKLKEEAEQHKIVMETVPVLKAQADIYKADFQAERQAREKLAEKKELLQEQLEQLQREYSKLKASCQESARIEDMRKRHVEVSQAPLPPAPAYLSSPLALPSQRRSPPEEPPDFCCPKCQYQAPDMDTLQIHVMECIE
T1 sequence (Q8N2W9 2-510 limits assumed): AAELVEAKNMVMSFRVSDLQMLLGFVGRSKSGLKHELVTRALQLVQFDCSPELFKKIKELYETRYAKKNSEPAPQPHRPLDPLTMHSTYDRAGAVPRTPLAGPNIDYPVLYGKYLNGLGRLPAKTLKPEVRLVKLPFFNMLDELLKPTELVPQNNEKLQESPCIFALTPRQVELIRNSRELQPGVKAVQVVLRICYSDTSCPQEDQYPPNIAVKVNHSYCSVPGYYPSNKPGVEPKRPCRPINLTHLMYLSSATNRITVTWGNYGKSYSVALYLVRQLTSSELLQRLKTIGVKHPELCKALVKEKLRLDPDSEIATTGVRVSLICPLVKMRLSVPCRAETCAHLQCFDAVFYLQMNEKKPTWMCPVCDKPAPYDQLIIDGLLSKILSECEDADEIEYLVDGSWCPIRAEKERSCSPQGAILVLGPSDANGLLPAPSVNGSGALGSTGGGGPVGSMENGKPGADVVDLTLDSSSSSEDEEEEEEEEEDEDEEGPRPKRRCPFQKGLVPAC
T1 sequence (P09874 2-1014 limits assumed): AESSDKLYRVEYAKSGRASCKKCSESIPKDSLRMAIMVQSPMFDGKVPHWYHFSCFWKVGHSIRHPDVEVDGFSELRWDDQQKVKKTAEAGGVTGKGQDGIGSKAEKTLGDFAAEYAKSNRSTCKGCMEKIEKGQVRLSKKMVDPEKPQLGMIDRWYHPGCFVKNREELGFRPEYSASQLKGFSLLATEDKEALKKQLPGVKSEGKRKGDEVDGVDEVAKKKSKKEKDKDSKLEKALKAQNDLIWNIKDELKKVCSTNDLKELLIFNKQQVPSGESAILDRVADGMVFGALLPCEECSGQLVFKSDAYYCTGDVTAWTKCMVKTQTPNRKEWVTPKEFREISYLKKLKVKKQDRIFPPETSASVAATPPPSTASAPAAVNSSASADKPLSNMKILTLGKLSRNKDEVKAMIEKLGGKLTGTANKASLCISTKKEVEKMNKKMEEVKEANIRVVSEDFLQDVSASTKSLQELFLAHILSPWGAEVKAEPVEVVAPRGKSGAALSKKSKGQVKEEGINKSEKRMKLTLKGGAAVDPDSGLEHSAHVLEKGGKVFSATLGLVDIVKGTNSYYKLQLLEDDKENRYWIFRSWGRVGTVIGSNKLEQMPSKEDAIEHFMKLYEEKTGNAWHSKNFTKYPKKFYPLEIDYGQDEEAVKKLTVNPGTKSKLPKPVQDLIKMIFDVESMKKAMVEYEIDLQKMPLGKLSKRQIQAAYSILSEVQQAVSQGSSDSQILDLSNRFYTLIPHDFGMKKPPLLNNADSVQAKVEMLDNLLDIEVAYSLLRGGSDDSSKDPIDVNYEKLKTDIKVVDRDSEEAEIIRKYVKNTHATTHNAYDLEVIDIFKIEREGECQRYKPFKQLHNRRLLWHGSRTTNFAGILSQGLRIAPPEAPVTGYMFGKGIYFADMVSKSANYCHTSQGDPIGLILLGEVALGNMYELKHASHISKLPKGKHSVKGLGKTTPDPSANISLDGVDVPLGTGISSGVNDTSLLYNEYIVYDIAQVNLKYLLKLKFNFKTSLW
T1 sequence (Q13315 2-3056 limits assumed): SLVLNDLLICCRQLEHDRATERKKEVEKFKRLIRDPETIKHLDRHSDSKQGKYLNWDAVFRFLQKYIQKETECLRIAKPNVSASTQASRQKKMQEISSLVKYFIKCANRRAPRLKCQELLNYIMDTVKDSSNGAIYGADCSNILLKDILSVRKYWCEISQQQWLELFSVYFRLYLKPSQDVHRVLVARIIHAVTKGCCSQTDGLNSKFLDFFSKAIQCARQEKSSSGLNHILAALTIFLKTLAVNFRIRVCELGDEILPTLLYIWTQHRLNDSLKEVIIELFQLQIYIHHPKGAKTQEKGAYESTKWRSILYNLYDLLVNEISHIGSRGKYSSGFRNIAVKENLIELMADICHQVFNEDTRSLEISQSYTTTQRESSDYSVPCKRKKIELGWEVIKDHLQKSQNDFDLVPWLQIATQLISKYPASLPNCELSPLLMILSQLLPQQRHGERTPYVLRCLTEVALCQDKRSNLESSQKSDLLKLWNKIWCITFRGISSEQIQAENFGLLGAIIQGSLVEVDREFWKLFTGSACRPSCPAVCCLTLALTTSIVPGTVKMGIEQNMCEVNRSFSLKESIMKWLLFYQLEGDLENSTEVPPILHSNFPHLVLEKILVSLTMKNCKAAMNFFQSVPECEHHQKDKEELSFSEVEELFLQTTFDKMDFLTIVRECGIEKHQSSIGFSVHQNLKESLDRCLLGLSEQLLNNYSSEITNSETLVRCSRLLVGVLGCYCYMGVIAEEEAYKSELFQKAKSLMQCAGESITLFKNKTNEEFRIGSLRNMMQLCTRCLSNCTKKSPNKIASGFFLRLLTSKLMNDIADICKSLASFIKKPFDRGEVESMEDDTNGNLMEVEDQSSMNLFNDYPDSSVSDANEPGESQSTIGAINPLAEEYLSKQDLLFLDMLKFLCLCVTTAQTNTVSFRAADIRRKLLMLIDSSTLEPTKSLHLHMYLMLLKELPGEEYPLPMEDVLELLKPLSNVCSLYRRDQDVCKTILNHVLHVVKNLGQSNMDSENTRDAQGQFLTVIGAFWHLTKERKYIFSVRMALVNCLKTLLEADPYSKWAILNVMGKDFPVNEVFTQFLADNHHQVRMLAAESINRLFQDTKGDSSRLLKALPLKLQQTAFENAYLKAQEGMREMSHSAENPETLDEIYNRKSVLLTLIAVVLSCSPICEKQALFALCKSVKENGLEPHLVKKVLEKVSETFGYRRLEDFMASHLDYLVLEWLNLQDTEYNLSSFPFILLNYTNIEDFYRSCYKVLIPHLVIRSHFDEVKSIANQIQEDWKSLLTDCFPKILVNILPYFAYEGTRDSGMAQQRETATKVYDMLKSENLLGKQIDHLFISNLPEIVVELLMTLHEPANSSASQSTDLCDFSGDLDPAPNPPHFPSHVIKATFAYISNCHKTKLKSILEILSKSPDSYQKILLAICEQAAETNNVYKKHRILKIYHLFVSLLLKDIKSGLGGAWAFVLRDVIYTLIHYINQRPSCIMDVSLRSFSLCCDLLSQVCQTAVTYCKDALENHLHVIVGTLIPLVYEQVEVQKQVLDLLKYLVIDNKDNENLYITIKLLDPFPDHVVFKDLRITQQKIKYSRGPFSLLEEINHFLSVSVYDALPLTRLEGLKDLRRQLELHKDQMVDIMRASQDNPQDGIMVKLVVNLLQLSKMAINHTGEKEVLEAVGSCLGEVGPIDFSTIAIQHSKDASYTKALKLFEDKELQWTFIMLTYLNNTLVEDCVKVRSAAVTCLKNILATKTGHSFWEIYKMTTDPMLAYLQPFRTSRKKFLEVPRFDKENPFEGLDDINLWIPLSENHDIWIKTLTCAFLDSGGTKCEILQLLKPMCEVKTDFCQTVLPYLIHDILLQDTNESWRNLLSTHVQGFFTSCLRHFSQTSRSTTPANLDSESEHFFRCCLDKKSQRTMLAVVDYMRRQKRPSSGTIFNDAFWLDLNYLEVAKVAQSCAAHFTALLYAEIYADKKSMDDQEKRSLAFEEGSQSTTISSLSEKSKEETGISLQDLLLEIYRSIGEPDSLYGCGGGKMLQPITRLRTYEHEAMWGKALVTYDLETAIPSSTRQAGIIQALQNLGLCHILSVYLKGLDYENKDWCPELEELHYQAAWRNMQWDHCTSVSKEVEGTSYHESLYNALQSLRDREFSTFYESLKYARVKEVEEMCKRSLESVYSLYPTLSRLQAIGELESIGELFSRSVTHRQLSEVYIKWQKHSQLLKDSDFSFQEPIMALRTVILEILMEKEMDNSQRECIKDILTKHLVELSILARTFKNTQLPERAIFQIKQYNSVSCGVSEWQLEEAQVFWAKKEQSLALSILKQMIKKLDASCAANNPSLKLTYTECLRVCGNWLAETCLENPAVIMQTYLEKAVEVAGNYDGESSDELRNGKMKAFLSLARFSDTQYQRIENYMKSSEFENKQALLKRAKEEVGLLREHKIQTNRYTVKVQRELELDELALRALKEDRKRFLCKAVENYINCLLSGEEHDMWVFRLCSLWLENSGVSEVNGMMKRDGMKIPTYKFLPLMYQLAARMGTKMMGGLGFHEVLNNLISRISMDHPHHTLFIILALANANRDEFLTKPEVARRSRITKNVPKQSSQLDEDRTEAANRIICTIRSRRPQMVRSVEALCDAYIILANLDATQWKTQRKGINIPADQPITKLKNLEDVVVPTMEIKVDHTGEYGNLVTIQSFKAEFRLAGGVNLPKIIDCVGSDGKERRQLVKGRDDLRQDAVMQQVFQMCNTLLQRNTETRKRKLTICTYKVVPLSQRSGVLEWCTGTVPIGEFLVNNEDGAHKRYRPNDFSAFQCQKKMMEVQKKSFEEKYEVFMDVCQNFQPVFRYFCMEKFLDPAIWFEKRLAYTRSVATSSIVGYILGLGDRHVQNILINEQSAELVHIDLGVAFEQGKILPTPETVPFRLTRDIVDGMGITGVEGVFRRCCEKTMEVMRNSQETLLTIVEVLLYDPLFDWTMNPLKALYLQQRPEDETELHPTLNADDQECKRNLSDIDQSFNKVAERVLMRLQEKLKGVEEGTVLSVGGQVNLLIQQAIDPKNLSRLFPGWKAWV

Structure (SMILES): COc1ccc2c(c1OC)c(=O)n1c3ccc(O)cc3c3ccnc2c31 [MW01, 12-hydroxy-6,7-dimethoxy-8H-benzo[c]indolo[3,2,1-ij][1,5]naphthyridin-8-one]
- effect on p65 nuclear translocation / NF-κB activation after TNFα stimulation [1]: did not interfere with p65 nuclear translocation rates
- Co-IP of PARP-1 with IKKγ ([2]; HEK293, data not shown): abrogated Co-IP of PARP-1 with IKKγ
- IKKγ-PIASy-interaction (PIASy co-immunoprecipitation with IKKγ) ([2]; HEK293, γ-irradiation): the interaction was abolished
- p65 S536 phosphorylation level ([3]; HepG2, 5 μM, irradiated, 60 min): drastically reduced
- TAK1 and p65 phosphorylation ([3]; HepG2, γ-IR): abolished
- induced NF-κB DNA binding activity upon TNFα stimulation [4]: did not interfere with induced NF-κB DNA binding activity
- co-immunoprecipitation of PARP1 with IKKγ ([5]; HepG2, IKKγ IP): not co-immunoprecipitated
- γ-irradiation-induced Co-IP of phosphorylated ATM-51981 species with PIASy ([5]; HepG2 nuclear extracts, PIASy IP): lost after pre-treatment with MW01
